According to US5593970A, “Heterocyclic anthracycline analogs” (priority 1994, dated 1997):
Read-outs that look alike come from different tables or passages of the source.

Legend:
HCT-116 = experiment: NCI sulforhodamine B assay; type: cell-based; settings: Homo sapiens
Procedure: (§1) These assays were carried out at the Developmental Therapeutics Program, Division of Cancer Treatment, National Cancer Institute (Bethesda, Md., U.S.A.). The method consists of incubating varying concentrations of the drug with an inoculum of cells for two days. […] The 57 cell lines included two mouse leukemia lines (P388 parental and adriamycin resistant) and […] human cell lines.
(§2) It should be noted that the first two parameters (GI50 and TGI) relate to antiproliferation effects while the third one (LC50) indicates true cytotoxicity. A value of -4 or greater is considered to denote resistance (inactivity).

MOLT-4 = experiment: NCI sulforhodamine B assay; type: cell-based; settings: Homo sapiens, MOLT-4, 48 h; read-out: Log10 TGI (converted)
Procedure: as §1, §2

P388 = experiment: NCI sulforhodamine B assay; type: cell-based; settings: Mus musculus, P388, 48 h
Procedure: as §1, §2

OVCAR-8 = experiment: NCI sulforhodamine B assay; type: cell-based; settings: Homo sapiens, read-out: Log10 GI50 (converted)
Procedure: as §1, §2

OVCAR-3 = experiment: NCI sulforhodamine B assay; type: cell-based; settings: Homo sapiens, read-out: Log10 GI50 (converted)
Procedure: as §1, §2

SNB-78 = experiment: NCI sulforhodamine B assay; type: cell-based; settings: Homo sapiens, SNB-78, 48 h, read-out: Log10 LC50 (converted)
Procedure: as §1, §2

XF-498 L = experiment: NCI sulforhodamine B assay; type: cell-based; settings: Homo sapiens
Procedure: as §1, §2

K-562 = experiment: NCI sulforhodamine B assay; type: cell-based; settings: Homo sapiens, K562, 48 h, read-out: Log10 TGI (converted)
Procedure: as §1, §2

CCRF-CEM = experiment: NCI sulforhodamine B assay; type: cell-based; settings: Homo sapiens, 48 h, read-out: Log10 LC50 (converted)
Procedure: The method consists of incubating varying concentrations of the drug with an inoculum of cells for two days. […] The 57 cell lines included two mouse leukemia lines (P388 parental and adriamycin resistant) and 56 human cell lines.

SK-MEL-2 = experiment: NCI sulforhodamine B assay; type: cell-based, human
Procedure: as §1, §2

OVCAR-5 = experiment: NCI sulforhodamine B assay; type: cell-based, human
Procedure: as §1, §2

NCl-H460 = experiment: NCI sulforhodamine B assay; type: cell-based, human
Procedure: as §1, §2

SN-12C = experiment: NCI sulforhodamine B assay; type: cell-based, human
Procedure: as §1, §2

RPMI-8226 = experiment: NCI sulforhodamine B assay; type: cell-based, human; settings: 2880 min
Procedure: as §1, §2

HOP-92 = experiment: NCI sulforhodamine B assay; type: cell-based, human
Procedure: as §1, §2

HCC-2998 = experiment: NCI sulforhodamine B assay; type: cell-based, human
Procedure: as §1, §2

IGROV-1 = experiment: NCI sulforhodamine B assay; type: cell-based, human
Procedure: as §1, §2

OVCAR-4 = experiment: NCI sulforhodamine B assay; type: cell-based, human
Procedure: as §1, §2

HOP-18 = experiment: NCI sulforhodamine B assay; type: cell-based, human
Procedure: as §1, §2

EKVX = experiment: NCI sulforhodamine B assay; type: cell-based, human
Procedure: as §1, §2

Melanoma = settings: melanoma cell lines, 48 h
SC Lung = settings: sc lung cancer cell lines, 48 h
NSC Lung = settings: nsc lung cancer cell lines, 48 h
tumor cell lines = settings: tumor cell line panel, 48 h
Colon = settings: colon cancer cell lines, 48 h
Leukemia = settings: leukemia cell lines, 48 h
CNS = settings: cns cancer cell lines, 48 h
Ovarian = settings: ovarian cancer cell lines, 48 h
solid tumors = settings: solid tumor cell lines, 48 h
Renal = settings: renal cancer cell lines, 48 h

Q: Which CC50 (HCT-116; HCT-116, 48 h, read-out: Log10 LC50 (converted)) does the source give for COC(=O)C1CC2=C(C(=O)c3c(cc4ccccc4c3O)C2=O)C(O[C@H]2C[C@H](NC(=O)C(F)(F)F)[C@H](O)[C@H](C)O2)O1 (mixture of isomers) [BCH-242, (1'S,1R,3S) and (1'S, 1S,3R)-Methyl[11-hydroxy-1-2',3',6'-trideoxy-3-trifluroacetamido-L-lyxohexopyranose)-5,12-dioxo-3,4,5,12-tetrahydroanthraceno[2,3-c]pyran-3-yl]formate] here?
A: Its CC50 is 0.933 µM.

Q: And the IC100 (HCT-116; HCT-116, 48 h, read-out: Log10 TGI (converted))?
A: Its IC100 is 0.355 µM.

Q: And the GI50 (HCT-116; HCT-116, read-out: Log10 GI50 (converted))?
A: Its GI50 is 0.132 µM.

Q: What about the IC100 (MOLT-4) of the same molecule?
A: Its IC100 is 3.24 µM.

Q: And the CC50 (P388; read-out: Log10 LC50 (converted))?
A: The CC50 was > 100 µM.

Q: And the IC100 (P388; read-out: Log10 TGI)?
A: Its IC100 is > 100 µM.

Q: What about the GI50 (OVCAR-8; OVCAR-8, OVCAR-8) of the same molecule?
A: Its GI50 is 0.224 µM.

Q: What about the GI50 (OVCAR-8; OVCAR-8) of the same molecule?
A: The GI50 was 3.24 µM.

Q: What about the GI50 (OVCAR-3; OVCAR-3, OVCAR-3) of the same molecule?
A: The GI50 was 1.51 µM.

Q: What about the GI50 (OVCAR-3; OVCAR-3) of the same molecule?
A: Its GI50 is 0.251 µM.

Q: What about the CC50 (SNB-78) of the same molecule?
A: The CC50 was > 100 µM.

Q: What about the CC50 (XF-498 L; XF498, 48 h, read-out: Log10 LC50 (converted)) of the same molecule?
A: The CC50 was 6.03 µM.

Q: And the IC100 (XF-498 L; XF498, 48 h, XF-498 L, read-out: Log10 TGI (converted))?
A: The IC100 was 3.16 µM.

Q: And the GI50 (XF-498 L; XF498, XF-498 L, read-out: Log10 GI50 (converted))?
A: Its GI50 is 1.62 µM.

Q: What about the IC100 (K-562) of the same molecule?
A: Its IC100 is 4.47 µM.

Q: And the CC50 (CCRF-CEM)?
A: Its CC50 is > 100 µM.

Q: What about the CC50 (SK-MEL-2; Homo sapiens, SK-MEL-2, 48 h, read-out: Log10 LC50, SK-MEL-2 (converted)) of the same molecule?
A: Its CC50 is 5.75 µM.

Q: What about the “Log10 LC50” value (SK-MEL-2; SK-MEL-2, 2880 min) of the same molecule?
A: The value was -5.39 log molar.

Q: What about the IC100 (OVCAR-5; Homo sapiens, OVCAR-5, 48 h, OVCAR-5, read-out: Log10 TGI (converted)) of the same molecule?
A: The IC100 was 3.47 µM.

Q: What about the CC50 (OVCAR-5; Homo sapiens, OVCAR-5, 48 h, read-out: Log10 LC50, OVCAR-5 (converted)) of the same molecule?
A: Its CC50 is 5.89 µM.

Q: What about the GI50 (OVCAR-5; Homo sapiens, OVCAR-5, OVCAR-5, read-out: Log10 GI50 (converted)) of the same molecule?
A: The GI50 was 2 µM.

Q: What about the “Log10 GI50” value (OVCAR-5; OVCAR-5) of the same molecule?
A: Its value is -5.73 log molar.

Q: What about the “Log10 TGI” value (OVCAR-5; OVCAR-5) of the same molecule?
A: The value was -5.49 log molar.

Q: And the “Log10 LC50” value (OVCAR-5; OVCAR-5, 2880 min)?
A: The value was -5.24 log molar.

Q: What about the IC100 (NCl-H460; Homo sapiens, 48 h, NCl-H460, read-out: Log10 TGI (converted)) of the same molecule?
A: Its IC100 is 3.98 µM.

Q: What about the CC50 (NCl-H460; Homo sapiens, NCI-H460, 48 h, read-out: Log10 LC50, NCl-H460 (converted)) of the same molecule?
A: The CC50 was 8.13 µM.

Q: And the “Log10 TGI” value (NCl-H460; NCl-H460)?
A: The value was -5.70 log molar.

Q: What about the “Log10 LC50” value (NCl-H460; NCl-H460, 2880 min) of the same molecule?
A: The value was -5.33 log molar.

Q: And the IC100 (SN-12C; Homo sapiens, SN12C, 48 h, SN-12C, read-out: Log10 TGI (converted))?
A: The IC100 was 3.02 µM.

Q: And the CC50 (SN-12C; Homo sapiens, SN12C, 48 h, read-out: Log10 LC50, SN-12C (converted))?
A: Its CC50 is 5.5 µM.

Q: And the GI50 (SN-12C; Homo sapiens, SN12C, SN-12C, read-out: Log10 GI50 (converted))?
A: The GI50 was 1.62 µM.

Q: And the “Log10 GI50” value (SN-12C; SN-12C)?
A: The value was -5.94 log molar.

Q: And the “Log10 TGI” value (SN-12C; SN-12C)?
A: The value was -5.62 log molar.

Q: And the “Log10 LC50” value (SN-12C; SN-12C, 2880 min)?
A: The value was -5.31 log molar.

Q: And the “Log10 LC50” value (RPMI-8226)?
A: The value was -4.47 log molar.

Q: What about the “Log10 LC50” value (HOP-92; HOP-92, 2880 min) of the same molecule?
A: The value was -5.36 log molar.

Q: What about the CC50 (HOP-92; Homo sapiens, HOP-92, 48 h, read-out: Log10 LC50, HOP-92 (converted)) of the same molecule?
A: The CC50 was 6.76 µM.

Q: And the “Log10 GI50” value (HCC-2998; HCC-2998)?
A: The value was -5.92 log molar.

Q: What about the GI50 (HCC-2998; Homo sapiens, HCC 2998, HCC-2998, read-out: Log10 GI50 (converted)) of the same molecule?
A: The GI50 was 2.34 µM.

Q: And the “Log10 GI50” value (IGROV-1)?
A: The value was -5.75 log molar.

Q: And the “Log10 LC50” value (IGROV-1; 2880 min)?
A: The value was -5.10 log molar.

Q: And the IC100 (OVCAR-4; Homo sapiens, OVCAR-4, 48 h, OVCAR-4, read-out: Log10 TGI (converted))?
A: The IC100 was 3.31 µM.

Q: What about the CC50 (OVCAR-4; Homo sapiens, OVCAR-4, 48 h, read-out: Log10 LC50, OVCAR-4 (converted)) of the same molecule?
A: Its CC50 is 6.03 µM.

Q: And the “Log10 GI50” value (OVCAR-4; OVCAR-4)?
A: The value was -5.94 log molar.

Q: And the “Log10 TGI” value (OVCAR-4; OVCAR-4)?
A: Its value is -5.63 log molar.

Q: What about the “Log10 LC50” value (OVCAR-4; OVCAR-4, 2880 min) of the same molecule?
A: The value was -5.31 log molar.

Q: And the “Log10 GI50” value (HOP-18; HOP-18)?
A: Its value is -5.94 log molar.

Q: And the “Log10 TGI” value (HOP-18; HOP-18)?
A: The value was -5.45 log molar.

Q: And the “Log10 LC50” value (HOP-18; HOP-18, 2880 min)?
A: Its value is -4.92 log molar.

Q: And the IC100 (HOP-18; Homo sapiens, HOP-18, 48 h, HOP-18, read-out: Log10 TGI (converted))?
A: The IC100 was 4.9 µM.

Q: And the CC50 (HOP-18; Homo sapiens, HOP-18, 48 h, read-out: Log10 LC50, HOP-18 (converted))?
A: The CC50 was 16.6 µM.

Q: What about the GI50 (HOP-18; Homo sapiens, HOP-18, HOP-18, read-out: Log10 GI50 (converted)) of the same molecule?
A: The GI50 was 1.91 µM.

Q: And the “Log10 GI50” value (EKVX)?
A: Its value is -5.83 log molar.

Q: What about the “Log10 LC50” value (EKVX; 2880 min) of the same molecule?
A: Its value is -5.27 log molar.

Q: And the CC50 (EKVX; Homo sapiens, 48 h, read-out: Log10 LC50, EKVX (converted))?
A: Its CC50 is 6.31 µM.

Q: What about the IC100 (EKVX; Homo sapiens, 48 h, read-out: Log10 TGI (converted)) of the same molecule?
A: Its IC100 is 3.39 µM.

Q: What about the GI50 (EKVX; Homo sapiens, read-out: Log10 GI50 (converted)) of the same molecule?
A: Its GI50 is 1.78 µM.

Q: “Methyl(11-hydroxy-5,12-dioxo-3,4,5,12-tetrahydroanthraceno[2,3-c]pyran-3-yl)ketone and Methyl(5-hydroxy-5,12-dioxo-3,4,5,12-tetrahydroanthraceno[2,3-c]pyran-3-yl)ketone [BCH-687]” was tested. Which “Average LOG10 LC50” value (Melanoma) did it give?
A: Its value is -4.28(± 0.09) log molar.

Q: And the “Average LOG10 LC50” value (SC Lung)?
A: The value was > -4.18 log molar.

Q: And the “Average LOG10 LC50” value (NSC Lung)?
A: Its value is > -4.23(± 0.07) log molar.

Q: What about the “Log10 LC50, Mean / MG-MID” value (tumor cell lines) of the same molecule?
A: The value was -4.10 log molar.

Q: What about the “Average LOG10 LC50” value (Colon) of the same molecule?
A: Its value is -4.25(± 0.09) log molar.

Q: What about the “Average LOG10 LC50” value (Leukemia) of the same molecule?
A: Its value is > -4.00 log molar.

Q: And the “Average LOG10 LC50” value (CNS)?
A: Its value is > -4.15 log molar.

Q: And the “Average LOG10 LC50” value (Ovarian)?
A: The value was -4.15(± 0.11) log molar.

Q: And the “Average LOG10 LC50, Mean Potency in solid tumors” value (solid tumors)?
A: Its value is -4.21(± 0.05) log molar.

Q: What about the “Average LOG10 LC50” value (Renal) of the same molecule?
A: Its value is > -4.21 log molar.
